What was measured:
[1] = Calcium sequestration by titration with calcium chloride in presence of sodium oxalate until slight turbidity; type: physicochemical; settings: 20° C.; for Calcium sequestration capacity, mg Ca^2+/g mixture: Table 4
Procedure: Salt mixtures of galactaric acid were prepared to the desired composition by mixing sodium galactarate with either sodium borate decahydrate or sodium aluminate to a final weight of 10 grams. In an alternative preparation, galactaric acid was mixed with either sodium borate decahydrate or sodium aluminate. The resulting mixture was dissolved in a stoichiometric solution of sodium hydroxide.
The efficacy of different mixtures of galactaric acid salts and oxyanion salts in sequestering calcium at 20° C. were tested. First, salt mixtures were dissolved in deionized water at 5 g/L. Sodium oxalate stock solution, prepared at 20 g/Land pH 10, was then added to the mixture solution to yield a final concentration of 1 g/L sodium oxalate. The pH was adjusted to 10 for mixtures containing borate as the oxyanion and to 11 for mixtures containing aluminate as the oxyanion with 1M sodium hydroxide or 1M hydrochloric acid. The resulting solutions were aliquoted to 50 mL and slowly titrated with stirring by addition of a 15 g/L anhydrous calcium chloride solution at a rate of 1 mL every 3 minutes until slight turbidity was observed, indicating saturation of calcium by the chelant mixture.
The effect of pH on calcium sequestration by mixtures of galactaric acid salts and oxyanion salts at room temperature was assayed. Mixtures of 70% disodium galactarate and 30% sodium aluminate and 60% disodium galactarate and 40% sodium borate decahydrate were prepared. The resulting mixtures were dissolved in deionized water at 5 g/L and the calcium sequestering capacity was determined, as described above, with the exception that the pH was adjusted to the indicated pH with either 1M sodium hydroxide or 1M hydrochloric acid.
The calcium chelating capacity of a variety of standard compounds and mixtures was determined for 5 g/L solutions dissolved in water, as described above. In all instances the temperature was 20° C. and except where noted, the pH of solution was adjusted to 10 before determination.

[2] = Qualitative solubility of sodium galactarate in water-based solutions; settings: for solubility at 15 min / solubility at 50 min: 20 °C, thermodynamic from solid, 0.5 g in 50 mL, 20 C, stirring; for solubility at 15 min: Solubility after 15 min.; for solubility at 50 min: Solubility after 50 min.
Procedure: To characterize the solubility of sodium galactarate, 0.5M solutions of alkali salts and non-alkali base were prepared in deionized water. To 50 mL of each solution 0.5 g of sodium galactarate, was added at 20° C. with stirring.

[3] = pH 10, aqueous buffer, 0.5M NH4OH (pH 10)

## O=C([O-])CC[C@@H](C(=O)[O-])N(CC(=O)[O-])CC(=O)[O-].[Na+].[Na+].[Na+].[Na+] [GLDA, N,N-Dicarboxymethyl glutamic acid tetrasodium salt]
[1]; pH 10, 5 g/L in water
  Calcium sequestration capacity, mg Ca^2+/g mixture: 80 mg Ca^2+/g mixture
[1]; pH 11, 5 g/L in water
  Calcium sequestration capacity, mg Ca^2+/g mixture: 132 mg Ca^2+/g mixture

## O.O.O=C([O-])CN(CCN(CC(=O)O)CC(=O)O)CC(=O)[O-].[Na+].[Na+] [EDTA, Ethylenedinitrilo Tetraacetic Acid Disodium Salt Dihydrate]
[1]; pH 10, 5 g/L in water
  Calcium sequestration capacity, mg Ca^2+/g mixture: 104 mg Ca^2+/g mixture

## O=C([O-])[C@@H](O)[C@H](O)[C@H](O)[C@@H](O)C(=O)[O-].[Na+].[Na+] [sodium galactarate]
[2]; 20° C.
  Effect of lithium ions present in solution on dissolution: accelerated dissolution
  Effect of sodium ions in solution (sodium chloride or sodium hydroxide) on dissolution: inhibited the dissolution
  Solubility (in words): soluble in water-based solutions and under basic conditions
[2]; aqueous buffer, 0.5M LiCl
  solubility at 15 min: > 10000 µg/mL
  solubility at 50 min: > 10000 µg/mL
[2]; aqueous buffer, 0.5M NaOH
  solubility at 15 min: < 10000 µg/mL
  solubility at 50 min: < 10000 µg/mL
[2]; [3]
  solubility at 15 min: < 10000 µg/mL
  solubility at 50 min: > 10000 µg/mL
[2]; saline or isotonic, 0.5M NaCl
  solubility at 15 min: < 10000 µg/mL
  solubility at 50 min: < 10000 µg/mL
[2]; water, Water
  solubility at 15 min: < 10000 µg/mL
  solubility at 50 min: > 10000 µg/mL
[1]; Table 2, no oxyanion salt, pH not stated, 5 g/L, 1 g/L sodium oxalate
  Calcium sequestration, mg Ca^2+/g mixture: 5 mg Ca^2+/g mixture

## O=C([O-])CC(O)(CC(=O)[O-])C(=O)[O-].[Na+].[Na+].[Na+] [Trisodium citrate, trisodium citrate]
[1]; pH 10, 5 g/L in water
  Calcium sequestration capacity, mg Ca^2+/g mixture: 32 mg Ca^2+/g mixture
